Data from US8846736B2, “Pyrrole inhibitors of S-nitrosoglutathione reductase as therapeutic agents” (N30 Pharmaceuticals, Inc., priority 2008, dated 2014).

biological target: T1, GSNOR (GSNO Reductase) (Homo sapiens, UniProt P11766); assay: GSNOR assay (in vitro inhibition of GSNOR activity, change in 340 nm absorbance); type: biochemical; conditions: GSNOR inhibitor activity by the assay of Example 2; 0.240 mM GSNO, 0.300 mM NADH, pH 7.4, 25° C.; values given as 'about' bounds
T1 construct: made in house; host or cells: E. coli (arabinose-induced)
Procedure: Various compounds were tested in vitro for their ability to inhibit GSNOR activity. Representative compounds and their corresponding GSNOR activity are described in a paragraph before Table 1 above. GSNOR expression and purification is described in Biochemistry 2000, 39, 10720-10729.
Pre-cultures were grown from stabs of a GSNOR glycerol stock in 2XYT media containing 100 ug/ml ampicillin after an overnight incubation at 37° C. Cells were then added to fresh 2XYT (4 L) containing ampicillin and grown to an OD (A600) of 0.6-0.9 at 37° C. before induction. GSNOR expression was induced with 0.1% arabinose in an overnight incubation at 20° C.
E. coli cell paste was lysed by nitrogen cavitation and the clarified lysate purified by Ni affinity chromatography on an AKTA FPLC (Amersham Pharmacia). The column was eluted in 20 mM Tris pH 8.0/250 mM NaCl with a 0-500 mM imidazole gradient. […] GSNOR was recovered in the flowthrough fraction and for crystallography is further purified by Q-Sepharose and Heparin flowthrough chromatography in 20 mM Tris pH 8.0, 1 mM DTT, 10 uM ZnSO4.
GSNO and Enzyme/NADH Solutions are made up fresh each day. The Solutions are filtered and allowed to warm to room temperature. GSNO Solution: 100 mM NaPO4 (pH 7.4), 0.480 mM GSNO. 396 μL of GSNO Solution is added to a cuvette followed by 8 μL of test compound in DMSO (or DMSO only for full reaction control) and mixed with the pipette tip. Compounds to be tested are made up at a stock concentration of 10 mM in 100% DMSO. 2 fold serial dilutions are done in 100% DMSO. 8 μL of each dilution are added to an assay so that the final concentration of DMSO in the assay is 1%. The concentrations of compounds tested range from 100 to 0.003 μM. Enzyme/NADH Solution: 100 mM NaPO4 (pH 7.4), 0.600 mM NADH, 1.0 μg/mL GSNO Reductase. 396 μL of the Enzyme/NADH Solution is added to the cuvette to start the reaction. The cuvette is placed in the Cary 3E UV/Visible Spectrophotometer and the change in 340 nm absorbance/min at 25° C. is recorded for 3 minutes. The assays are done in triplicate for each compound concentration. IC50's for each compound are calculated using the standard curve analysis in the Enzyme Kinetics Module of SigmaPlot.
Final assay conditions: 100 mM NaPO4, pH 7.4, 0.240 mM GSNO, 0.300 mM NADH, 0.5 μg/mL GSNO Reductase and 1% DMSO. Final volume: 800 μL/cuvette.

T1 sequence (P11766 whole entry): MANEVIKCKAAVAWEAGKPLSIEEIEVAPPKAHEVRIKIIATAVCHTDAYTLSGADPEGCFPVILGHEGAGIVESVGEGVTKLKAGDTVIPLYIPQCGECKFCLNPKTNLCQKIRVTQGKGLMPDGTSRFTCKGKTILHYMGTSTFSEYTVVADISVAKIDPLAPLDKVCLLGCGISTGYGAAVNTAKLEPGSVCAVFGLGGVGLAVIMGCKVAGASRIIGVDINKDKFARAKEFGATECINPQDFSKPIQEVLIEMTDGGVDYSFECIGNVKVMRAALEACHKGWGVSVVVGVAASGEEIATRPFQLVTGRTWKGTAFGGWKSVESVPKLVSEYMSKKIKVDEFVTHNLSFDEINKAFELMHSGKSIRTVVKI

| IC50 [nM] | SMILES |
| --- | --- |
| < 1000 | Cc1cc(C(N)=O)ccc1-n1c(Cc2nnn[nH]2)ccc1-c1ccc(-n2ccnc2C)cc1 [Compound 21, 4-(2-((1H-tetrazol-5-yl)methyl)-5-(4-(2-methyl-1H-imidazol-1-yl)phenyl)-1H-pyrrol-1-yl)-3-methylbenzamide] |
| < 1000 | Oc1ccc(-n2c(Cc3nnn[nH]3)ccc2-c2ccc(-n3ccnc3)cc2)cc1 [Compound 12, 4-(2-(4-(1H-imidazol-1-yl)phenyl)-5-((1H-tetrazol-5-yl)methyl)-1H-pyrrol-1-yl)phenol] |
| < 1000 | COc1cc(Br)ccc1-c1ccc(CCc2nnn[nH]2)n1-c1ccc(C(N)=O)cc1C [Compound 17, 4-(2-(2-(1H-tetrazol-5-yl)ethyl)-5-(4-bromo-2-methoxy-phenyl)-1H-pyrrol-1-yl)-3-methylbenzamide] |
| < 1000 | Cc1cc(C(N)=O)ccc1-n1c(CCc2nnn[nH]2)ccc1-c1ccc(Br)cc1 [Compound 11, 4-(2-(2-(1H-tetrazol-5-yl)ethyl)-5-(4-bromophenyl)-1H-pyrrol-1-yl)-3-methylbenzamide] |
| < 5000 | COc1ccc(-c2ccc(CCc3nnn[nH]3)n2-c2ccc(O)cc2)cc1 [Compound 13, 4-(2-(2-(1H-tetrazol-5-yl)ethyl)-5-(4-methoxyphenyl)-1H-pyrrol-1-yl)phenol] |
| < 1000 | Cc1cc(C(N)=O)ccc1-n1c(Cc2nnn[nH]2)ccc1-c1ccc(Br)cc1 [Compound 9, 4-(2-((1H-tetrazol-5-yl)methyl)-5-(4-bromophenyl)-1H-pyrrol-1-yl)-3-methylbenzamide] |
| < 1000 | Cc1cc(NS(C)(=O)=O)ccc1-n1c(Cc2nn[nH]n2)ccc1-c1ccc(-n2ccnc2C)s1 [Compound 22, N-(4-(2-((1H-tetrazol-5-yl)methyl)-5-(5-(2-methyl-1H-imidazol-1-yl)-thiophen-2-yl)-1H-pyrrol-1-yl)-3-methylphenyl)-methanesulfonamide] |
| < 5000 | COc1ccc(-c2ccc(CCc3nnn[nH]3)n2-c2ccc(C(N)=O)cc2C)cc1 [Compound 4, 4-(2-(2-(1H-tetrazol-5-yl)ethyl)-5-(4-methoxyphenyl)-1H-pyrrol-1-yl)-3-methylbenzamide] |
| < 5000 | COc1ccc(-c2ccc(Cc3nnn[nH]3)n2-c2ccc(C(N)=O)cc2C)cc1 [Compound 10, 4-(2-((1H-tetrazol-5-yl)methyl)-5-(4-methoxyphenyl)-1H-pyrrol-1-yl)-3-methylbenzamide] |
| < 5000 | Oc1ccc(-n2c(Cc3nnn[nH]3)ccc2-c2ccc(Br)cc2)cc1 [Compound 6, 4-(2-((1H-tetrazol-5-yl)methyl)-5-(4-bromophenyl)-1H-pyrrol-1-yl)phenol] |
| < 1000 | Cc1nccn1-c1ccc(-c2ccc(Cc3nnn[nH]3)n2-c2ccc(O)cc2)s1 [Compound 20, 4-(2-((1H-tetrazol-5-yl)methyl)-5-(5-(2-methyl-1H-imidazol-1-yl)thiophen-2-yl)-1H-pyrrol-1-yl)phenol] |
| < 1000 | COc1cc(Cl)ccc1-c1ccc(CCc2nnn[nH]2)n1-c1ccc(C(N)=O)cc1C [Compound 16, 4-(2-(2-(1H-tetrazol-5-yl)ethyl)-5-(4-chloro-2-methoxy-phenyl)-1H-pyrrol-1-yl)-3-methylbenzamide] |
| < 1000 | COc1cc(Br)ccc1-c1ccc(CCc2nnn[nH]2)n1-c1ccc(O)cc1 [Compound 15, 4-(2-(2-(1H-tetrazol-5-yl)ethyl)-5-(4-bromo-2-methoxyphenyl)-1H-pyrrol-1-yl)phenol] |
| < 1000 | Cc1nccn1-c1ccc(-c2ccc(Cc3nnn[nH]3)n2-c2ccc(O)cc2)cc1 [Compound 18, 4-(2-((1H-tetrazol-5-yl)methyl)-5-(4-(2-methyl-1H-imidazol-1-yl)phenyl)-1H-pyrrol-1-yl)phenol] |
| < 1000 | Cc1cc(C(N)=O)ccc1-n1c(Cc2nnn[nH]2)ccc1-c1ccc(-n2ccnc2C)s1 [Compound 19, 4-(2-((1H-tetrazol-5-yl)methyl)-5-(5-(2-methyl-1H-imidazol-1-yl)thiophen-2-yl)-1H-pyrrol-1-yl)-3-methylbenzamide] |
| < 1000 | COc1cc(Cl)ccc1-c1ccc(CCc2nnn[nH]2)n1-c1ccc(O)cc1 [Compound 14, 4-(2-(2-(1H-tetrazol-5-yl)ethyl)-5-(4-chloro-2-methoxyphenyl)-1H-pyrrol-1-yl)phenol] |
| < 1000 | Oc1ccc(-n2c(CCc3nnn[nH]3)ccc2-c2ccc(Br)cc2)cc1 [Compound 5, 4-(2-(2-(1H-tetrazol-5-yl)ethyl)-5-(4-bromophenyl)-1H-pyrrol-1-yl)phenol] |
| < 5000 | COc1ccc(-c2ccn(CCc3nnn[nH]3)c2-c2ccc(C(N)=O)cc2C)cc1 [Compound 23, 4-(1-(2-(1H-tetrazol-5-yl)ethyl)-3-(4-methoxy-phenyl)-1H-pyrrol-2-yl)-3-methylbenzamide] |
| < 1000 | Oc1ccc(-n2c(CCc3nnn[nH]3)ccc2-c2ccc(-n3ccnc3)cc2)cc1 [Compound 8, 4-(2-(4-(1H-imidazol-1-yl)phenyl)-5-(2-(1H-tetrazol-5-yl)ethyl)-1H-pyrrol-1-yl)phenol] |
| < 1000 | NC(=O)c1ccc(-n2c(CCc3nnn[nH]3)ccc2-c2ccccc2)cc1 [Compound 1, 4-(2-(2-(1H-tetrazol-5-yl)ethyl)-5-phenyl-1H-pyrrol-1-yl)benzamide] |
